Literature values, collected in patent US12237054B2, “Model for high-throughput screening of endocrine disruptor and method for screening same” (Nanjing University, priority 2018, dated 2025).

Test system: HEK293T
Settings: standardized Activity value, data from public databases (ToxCast/Tox21, ChEMBL)

SMILES: CC(C)C(=O)Nc1ccc([N+](=O)[O-])c(C(F)(F)F)c1 [Flutamide]
- cytotoxicity experimental value: 4.4
